Assay results published in patent US20240150377A1, “MODULATORS OF CYSTIC FIBROSIS TRANSMEMBRANE CONDUCTANCE REGULATOR” (VERTEX PHARMACEUTICALS INCORPORATED, priority 2020, published 2024).
pEC50: −log10 of the molar value. Read-outs that look alike come from different tables or passages of the source.

Tests used:
[1] = molecular target: T1, F508del (Homo sapiens, UniProt P13569, DEL508-508); experiment: 3T3 assay: membrane potential optical assay for F508del correction; assay type: cell-based; conditions: F508del NIH 3T3 cells; for Emax: NIH3T3, compared to lumacaftor in combination with acutely added 300 nM Ivacaftor, read-out: 3T3 Max Activity; for pEC50: 18-24 hours at 37° C., forskolin, acutely added 300 nM Ivacaftor
T1 construct: expressed in transfected cells
T1 sequence (P13569 with tags, fused parts or gaps DEL508-508): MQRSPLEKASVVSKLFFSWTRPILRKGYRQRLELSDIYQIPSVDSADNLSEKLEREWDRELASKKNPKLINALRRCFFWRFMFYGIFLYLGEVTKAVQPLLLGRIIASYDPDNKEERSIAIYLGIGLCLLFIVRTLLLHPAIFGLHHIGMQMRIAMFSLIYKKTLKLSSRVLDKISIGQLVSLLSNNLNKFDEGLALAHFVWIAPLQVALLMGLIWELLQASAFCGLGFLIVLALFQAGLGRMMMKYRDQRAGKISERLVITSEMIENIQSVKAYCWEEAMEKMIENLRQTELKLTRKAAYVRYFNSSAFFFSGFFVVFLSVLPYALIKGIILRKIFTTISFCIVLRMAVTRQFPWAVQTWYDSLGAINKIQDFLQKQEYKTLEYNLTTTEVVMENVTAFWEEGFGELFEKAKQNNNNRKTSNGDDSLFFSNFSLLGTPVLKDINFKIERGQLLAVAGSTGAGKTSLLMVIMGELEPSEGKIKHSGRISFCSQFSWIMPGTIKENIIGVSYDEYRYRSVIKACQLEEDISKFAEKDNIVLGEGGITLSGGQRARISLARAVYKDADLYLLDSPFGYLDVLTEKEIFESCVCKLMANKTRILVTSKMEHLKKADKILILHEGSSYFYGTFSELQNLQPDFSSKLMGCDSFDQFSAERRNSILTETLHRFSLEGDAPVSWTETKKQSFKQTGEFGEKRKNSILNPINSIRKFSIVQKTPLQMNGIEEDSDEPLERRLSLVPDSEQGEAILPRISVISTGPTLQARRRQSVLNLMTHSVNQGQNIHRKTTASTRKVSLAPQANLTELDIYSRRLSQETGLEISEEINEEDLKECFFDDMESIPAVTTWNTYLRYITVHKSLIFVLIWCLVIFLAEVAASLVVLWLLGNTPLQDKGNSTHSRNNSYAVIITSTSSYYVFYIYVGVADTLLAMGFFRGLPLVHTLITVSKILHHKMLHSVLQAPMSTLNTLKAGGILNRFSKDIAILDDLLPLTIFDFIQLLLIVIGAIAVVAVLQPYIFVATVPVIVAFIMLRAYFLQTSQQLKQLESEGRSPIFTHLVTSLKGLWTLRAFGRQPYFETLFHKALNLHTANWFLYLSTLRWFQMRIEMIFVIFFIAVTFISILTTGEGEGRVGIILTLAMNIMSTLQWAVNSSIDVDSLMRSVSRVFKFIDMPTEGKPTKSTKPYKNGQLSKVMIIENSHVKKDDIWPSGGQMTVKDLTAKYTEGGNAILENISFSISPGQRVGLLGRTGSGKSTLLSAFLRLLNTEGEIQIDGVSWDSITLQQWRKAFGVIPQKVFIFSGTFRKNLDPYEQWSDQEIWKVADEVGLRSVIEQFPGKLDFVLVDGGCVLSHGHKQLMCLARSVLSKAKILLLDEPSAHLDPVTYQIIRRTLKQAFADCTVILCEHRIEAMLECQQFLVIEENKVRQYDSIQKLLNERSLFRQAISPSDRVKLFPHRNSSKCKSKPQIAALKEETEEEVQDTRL
Excerpt: 1. Membrane Potential Optical Methods for Assaying F508del Modulation Properties of Compounds
The assay utilizes fluorescent voltage sensing dyes to measure changes in membrane potential using a fluorescent plate reader (e.g., FLIPR III, Molecular Devices, Inc.) as a readout for increase in functional F508del in NIH 3T3 cells. The driving force for the response is the creation of a chloride ion gradient in conjunction with channel activation by a single liquid addition step after the cells have previously been treated with compounds and subsequently loaded with a voltage sensing dye.
2. Identification of Corrector Compounds
To identify correctors of F508del, a single-addition HTS assay format was developed. This HTS assay utilizes fluorescent voltage sensing dyes to measure changes in membrane potential on the FLIPR III as a measurement for increase in gating (conductance) of F508del in F508del NIH 3T3 cells. The F508del NIH 3T3 cell cultures were incubated with the corrector compounds at a range of concentrations for 18-24 hours at 37° C., and subsequently loaded with a redistribution dye. The driving force for the response is a Cl^− ion gradient in conjunction with channel activation with forskolin in a single liquid addition step using a fluorescent plate reader such as FLIPR III.
Bath Solution #1: (in mM) NaCl 160, KCl 4.5, CaCl2) 2, MgCl2 1, HEPES 10, pH 7.4 with NaOH.
Chloride-free bath solution: Chloride salts in Bath Solution #1 (above) are substituted with gluconate salts.
NIH3T3 mouse fibroblasts stably expressing F508del are used for optical measurements of membrane potential. The cells are maintained at 37° C. in 5% CO2 and 90% humidity in Dulbecco's modified Eagle's medium supplemented with 2 mM glutamine, 10% fetal bovine serum, 1× NEAA, b-ME, 1×pen/strep, and 25 mM HEPES in 175 cm^2 culture flasks. For all optical assays, the cells were seeded at ˜20,000/well in 384-well Matrigel-coated plates. For the correction assays, the cells are cultured at 37° C. with and without compounds for 16-24 hours.

[2] = molecular target: CFTR (Homo sapiens, UniProt P13569); experiment: Membrane potential dye, Enteroid Assay A; assay type: cell-based; conditions: for Ent. A Max Activity: chloride transport as % of triple combination control (Enteroid Assay A); for pEC50: human enteroid cells, 18-24 hours, acute 10 μM forskolin and 300 nM ivacaftor, read-out: Ent. A EC50
Chain of CFTR (P13569 with tags, fused parts or gaps DEL508-508): as above
Method in brief: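 Human intestinal enteroids incubated 18-24 h at 37 °C with test compound, then loaded with 20 μM methyl oxonol (with CaCC inhibitors). Chloride transport triggered in chloride-free buffer with 10 μM forskolin, 100 μM IBMX, 300 nM Compound III; fluorescence read 15 min, expressed as % of a triple-combination corrector/potentiator control.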

Row | Structure (SMILES) | Emax ([1]; Table 6) [%] | pEC50 ([1]; Table 6) | Ent. A Max Activity ([2]; Table 6) | pEC50 ([2]; Table 6) | Emax ([1]; Table 7) [%] | pEC50 ([1]; Table 7) | Ent. A Max Activity ([2]; Table 7) | pEC50 ([2]; Table 7)
1 | Cc1cccc(C)c1-c1cc2nc(n1)NS(=O)(=O)c1cccc(c1)C(=O)N(C)C[C@H](c1ccc(C(C)(C)C)cc1)O2 (single isomer, unassigned) [Compound 11, 10-(4-tert-Butylphenyl)-6-(2,6-dimethylphenyl)-12-methyl-2,2-dioxo-9-oxa-2λ^6-thia-3,5,12,19-tetrazatricyclo[12.3.1.14,8]nonadeca-1(18),4(19),5,7,14,16-hexaen-13-one] |  |  |  |  | > 60 | > 6.00 | +++ (+++ is >60%) | > 6.00
2 | CCCCCCCCN1C(=O)c2cccc(c2)S(=O)(=O)Nc2nc(cc(-c3c(C)cccc3C)n2)OC[C@H]1CC(C)C [Compound 361] | > 60 | > 6.00 | +++ (+++ is >60%) | > 6.00 |  |  |  | 
3 | Cc1cccc(C)c1-c1cc2nc(n1)NS(=O)(=O)c1cccc(c1)C(=O)N(C)[C@H](C)[C@H](c1ccc(C(C)(C)C)cc1)O2 [Compound 338] | > 60 | > 6.00 | + (+ is <30%) |  |  |  |  | 
4 | Cc1cccc(C)c1-c1cc2nc(n1)NS(=O)(=O)c1cccc(c1)NC(=O)CN(C(=O)OC(C)(C)C)CCO2 [Compound 516] | > 60 | > 6.00 | +++ (+++ is >60%) | 4.52 to 5.52 |  |  |  | 
5 | Cc1cccc(C)c1-c1cc2nc(n1)NS(=O)(=O)c1cccc(c1)C(=O)N(CCCC1CCOCC1)[C@H](CC(C)C)CO2 [Compound 353] | > 60 | > 6.00 | +++ (+++ is >60%) | > 6.00 |  |  |  | 
6 | Cc1cccc(C)c1-c1cc2nc(n1)NS(=O)(=O)c1cccc(c1)C(=O)N(CCC1CCN(C(C)C)CC1)[C@H](CC(C)C)CO2 [Compound 85, (11R)-6-(2,6-Dimethylphenyl)-11-isobutyl-12-[2-(1-isopropyl-4-piperidyl)ethyl]-2,2-dioxo-9-oxa-2λ^6-thia-3,5,12,19-tetrazatricyclo[12.3.1.14,8]nonadeca-1(18),4(19),5,7,14,16-hexaen-13-one] |  |  |  |  | > 60 | > 6.00 | +++ (+++ is >60%) | > 6.00
7 | Cc1cccc(C)c1-c1cc2nc(n1)NS(=O)(=O)c1cccc(c1)C(=O)N(C)C[C@H](c1ccc(C(C)(C)C)cn1)O2 (single isomer, unassigned) [Compound 103, 10-(5-tert-butyl-2-pyridyl)-6-(2,6-dimethylphenyl)-12-methyl-2,2-dioxo-9-oxa-2λ^6-thia-3,5,12,19-tetrazatricyclo[12.3.1.14,8]nonadeca-1(18),4(19),5,7,14,16-hexaen-13-one] |  |  |  |  | > 60 | > 6.00 | +++ (+++ is >60%) | > 6.00
8 | Cc1cccc(C)c1-c1cc2nc(n1)NS(=O)(=O)c1cccc(c1)C(=O)N(Cc1ccccc1)CC(c1ccccc1)O2 (stereo in doubt) [Compound 18, (10R)-12-Benzyl-6-(2,6-dimethylphenyl)-2,2-dioxo-10-phenyl-9-oxa-2λ^6-thia-3,5,12,19-tetrazatricyclo[12.3.1.14,8]nonadeca-1(18),4(19),5,7,14,16-hexaen-13-one] | > 60 | > 6.00 | +++ (+++ is >60%) | > 6.00 |  |  |  | 
9 | Cc1cccc(C)c1-c1cc2nc(n1)NS(=O)(=O)c1cccc(c1)C(=O)N(C)[C@H](C)[C@@H](c1ccc(C(C)(C)C)cc1)O2 [Compound 339] | > 60 | > 6.00 | ++ (++ is 30-60%) | > 6.00 |  |  |  | 
10 | Cc1cccc(C)c1-c1cc2nc(n1)NS(=O)(=O)c1cccc(c1)C(=O)N(CCC1CCOCC1)[C@H](CC(C)C)CO2 [Compound 79, (11R)-6-(2,6-Dimethylphenyl)-11-isobutyl-2,2-dioxo-12-(2-tetrahydropyran-4-ylethyl)-9-oxa-2λ^6-thia-3,5,12,19-tetrazatricyclo[12.3.1.14,8]nonadeca-1(18),4(19),5,7,14,16-hexaen-13-one] | > 60 | > 6.00 | +++ (+++ is >60%) | > 6.00 |  |  |  | 
11 | Cc1cccc(C)c1-c1cc2nc(n1)NS(=O)(=O)c1cccc(c1)C(=O)N(CCO)[C@H](CC(C)C)CO2 [Compound 80, (11R)-6-(2,6-Dimethylphenyl)-12-(2-hydroxyethyl)-11-isobutyl-2,2-dioxo-9-oxa-2λ^6-thia-3,5,12,19-tetrazatricyclo[12.3.1.14,8]nonadeca-1(18),4(19),5,7,14,16-hexaen-13-one] | > 60 | > 6.00 | +++ (+++ is >60%) | > 6.00 |  |  |  | 
12 | Cc1cccc(C)c1-c1cc2nc(n1)NS(=O)(=O)c1cccc(c1)C(=O)N(Cc1ccccc1)CC(Cc1ccccc1)O2 (stereo in doubt) [Compound 106, (10R)-10,12-dibenzyl-6-(2,6-dimethylphenyl)-9-oxa-2λ^6-thia-3,5,12,19-tetraazatricyclo[12.3.1.14,8]nonadeca-1(17),4(19),5,7,14(18),15-hexaene-2,2,13-trione] | > 60 | > 6.00 | +++ (+++ is >60%) | > 6.00 |  |  |  | 

The remaining lines, values ahead:

Row | Emax ([1]; Table 6) [%] | pEC50 ([1]; Table 6) | Ent. A Max Activity ([2]; Table 6) | pEC50 ([2]; Table 6) | Emax ([1]; Table 7) [%] | pEC50 ([1]; Table 7) | Ent. A Max Activity ([2]; Table 7) | pEC50 ([2]; Table 7) | Structure (SMILES)
13 | > 60 | > 6.00 | +++ (+++ is >60%) | > 6.00 |  |  |  |  | CNC(=O)c1ccc(CN2C(=O)c3cccc(c3)S(=O)(=O)Nc3nc(cc(-c4c(C)cccc4C)n3)OC[C@H]2CC(C)C)cc1 [Compound 419]
14 | > 60 | > 6.00 | +++ (+++ is >60%) | > 6.00 |  |  |  |  | Cc1cccc(C)c1-c1cc2nc(n1)NS(=O)(=O)c1cccc(c1)C(=O)N(C)[C@H](CC(C)C)CO2 [Compound 71, (11R)-6-(2,6-Dimethylphenyl)-12-methyl-11-(2-methylpropyl)-9-oxa-2λ^6-thia-3,5,12,19-tetraazatricyclo[12.3.1.14,8]nonadeca-1(18),4(19),5,7,14,16-hexaene-2,2,13-trione]
15 | > 60 | > 6.00 | +++ (+++ is >60%) | > 6.00 |  |  |  |  | Cc1cccc(C)c1-c1cc2nc(n1)NS(=O)(=O)c1cccc(c1)C(=O)N(Cc1ccc(C#N)cc1)[C@H](CC(C)C)CO2 [Compound 78, 4-[[(11R)-6-(2,6-Dimethylphenyl)-11-isobutyl-2,2,13-trioxo-9-oxa-2λ^6-thia-3,5,12,19-tetrazatricyclo[12.3.1.14,8]nonadeca-1(18),4(19),5,7,14,16-hexaen-12-yl]methyl]benzonitrile]
16 | > 60 | > 6.00 | +++ (+++ is >60%) | > 6.00 |  |  |  |  | Cc1cccc(C)c1-c1cc2nc(n1)NS(=O)(=O)c1cccc(c1)C(=O)N(CC(C)C)[C@H](CC(C)C)CO2 [Compound 865]
17 |  |  |  |  | > 60 | > 6.00 | +++ (+++ is >60%) | > 6.00 | Cc1cccc(C)c1-c1cc2nc(n1)NS(=O)(=O)c1cccc(c1)CN(Cc1cnn(-c3ccccc3)c1C)[C@H](CC(C)C)CO2 [Compound 1026]
18 |  |  |  |  | > 60 | > 6.00 | +++ (+++ is >60%) | > 6.00 | Cc1cccc(C)c1-c1cc2nc(n1)NS(=O)(=O)c1cccc(c1)C(=O)N(Cc1ccc(N3CCCCC3)nc1)[C@H](CC(C)C)CO2 [Compound 974]
19 |  |  |  |  | > 60 | > 6.00 | ++ (++ is 30-60%) | > 6.00 | Cc1cccc(C)c1-c1cc2nc(n1)NS(=O)(=O)c1cccc(c1)CN(Cc1cccc3c1OC(F)(F)O3)[C@H](CC(C)C)CO2 [Compound 1029]
20 |  |  |  |  | > 60 | > 6.00 | ++ (++ is 30-60%) | > 6.00 | Cc1cccc(C)c1-c1cc2nc(n1)NS(=O)(=O)c1cccc(c1)CN(CCCC1(C(F)(F)F)CC1)[C@H](CC(C)C)CO2 [Compound 1023]
